The source of these data is BindingDB's records for doi:10.1016/j.bmcl.2003.08.010 (University of Manchester, 2003).

The test can be described thus: Inhibitory activity against Escherichia coli thymidine phosphorylase.

Compound `C=CCNC(=S)NC=C1C(=O)NC(=O)NC1=O` [1-Allyl-3-(2,4,6-trioxo-tetrahydro-pyrimidin-5-ylidenemethyl)-thiourea] showed an IC50 of 94.8 µM.

Broadly, the IC50 is the midpoint of a concentration-inhibition curve. Read a low IC50 as inhibition by little substance.
